The source of these data is patent US20120035557A1, “Personal Care Compositions Comprising A Multi-Active System For Down Regulating Cytokines Irritation” (priority 2010, published 2012).

This assay concerns IL-1α (cytokine expression in hTERT keratinocytes). The assay is described as follows: In vitro assay: IL-1α in supernatants of IL-1β-treated hTERT keratinocytes (sandwich immunoassay, indexed to ATP viability). It is filed as cell-based, human. Particulars: for Avg IL-1α measurement: hTERT keratinocytes, 18 hrs, 6 replicates; for IL-1α reduction compared in words (significance groupings): 500 ppm, IL-1β treated hTERT keratinocytes, >95% confidence. The protocol:
The following in vitro assay test was conducted to determine the effect of White Tea Extract, Panthenol and Glycyrrhizinate salt on cytokine expression in hTERT keratinocytes:
BACKGROUND: hTERT-keratinocytes are a telomerase-immortalized neonatal epidermal keratinocyte line. Cell cultures of this type are known in the literature and have been used as models for multiple pathways as shown in the following references: Shay and Wright; Carcinogenesis, vol 26; no 5, pp 867-74, 2005; Bodner, et. al., Science, vol 279 pp 349-52, 1998; Ramirez, et. al., Oncogene, 22; pp 433-44, 2002. These cells display many features characteristic of normal primary keratinocytes and respond to normal growth controls in vitro.
TEST PROTOCOL: all measures were run in replicate (n=6).
To ensure proper levels of the biological active molecules for the in vitro study, dilution studies are conducted and ATP is analyzed for the highest non-cytotoxic concentration. White Tea Extract (H1615 WS, lot 98680094S-005) at a level of 500 ppm, Panthenol (lot 10063909S-018) at a level of 500 ppm, and Glycyrrhizinate salt (Barnet 25908N297) at a level of 500 ppm are used for this study. ATP analysis is described below.
ATP analysis is conducted using Cell Titer-Glo. The CellTiter-Glo Luminescent Cell Viability Assay is obtained from Promega Corporation (Madison, Wis.). This assay is a homogeneous method for determining the number of viable cells in culture based on quantitation of ATP present, signaling the presence of metabolically active cells. After the final treatment and supernatants collected, the CellTiter-Glo reagent is added. The reagent is then transferred to a BD Falcon (Franklin Lakes, N.J.) Microtest 96-well Assay Plate (black, flat bottom, reference 353945, lot 041151). Luminescence is read on a Perkin Elmer Fluorimeter (Wallac Envision 2101 Multilabel Reader). Relative luminescence units are plotted in percent control versus treatment concentration.
hTERT cells are cultured in complete EpiLife (Cascade Biologics, Portland, Oreg.) culture media in T75 culture flasks (Falcon, Becton Dickinson Labware, Franklin Lakes, N.J.) under 37° C./5% CO2 conditions. […] 2 ml of the cell suspension (density 20,000/cm^2) are plated in each well of a 6-well culture dish (Falcon) and cultured under 37° C./5% CO2 conditions overnight. A complete media exchange is performed and the cells are again cultured overnight under 37° C./5% CO2 conditions. The culture media is removed and 2 ml of treatment are placed in each well and the cells are cultured for 18 hrs. For all legs other than Control, IL-1β is added to the treatment at 1 nanogram per mL (for 2 nanograms per treatment). After the treatment period, the cell culture supernatants are collected and analyzed immediately for Interleukin-1α with an R&D Systems (Minneapolis, Minn.) kit which deploys the quantitative sandwich immunoassay technique. ATP is measured from cell lysates an indicator of viability. IL-1α is indexed to cell viability to ensure a proper reading of actual activity.
TESTING: This test was conducted and the analysis of the data is as follows. Statistical differences among treatments for IL-1α were analyzed via JMP using a log-transform before the analysis of variance. The log-transform ensures that the response data are normally distributed and have equal variance. […]

Where [1] appears, read: 500 ppm ingredient + IL-1β 1 nanogram per mL, IL-1α indexed to cell viability.

Where a name gives a salt, the structure may show the parent alone.

Consider `CC1(C)[C@@H](O[C@H]2O[C@H](C(=O)O)[C@@H](O)[C@H](O)[C@H]2O[C@H]2O[C@@H](C(=O)O)[C@H](O)[C@@H](O)[C@@H]2O)CC[C@]2(C)[C@H]3C(=O)C=C4[C@@H]5C[C@@](C)(C(=O)O)CC[C@]5(C)CC[C@@]4(C)[C@]3(C)CC[C@@H]12` [Glycyrrhizinate salt], for which the “IL-1α reduction compared in words (significance groupings)” value was “slightly higher IL-1α reduction”. For the same compound, the “Avg IL-1α measurement” value under setting [1] was determined as 17.57. Consider `CC(C)(CO)[C@@H](O)C(=O)NCCCO` [Panthenol], for which the “IL-1α reduction compared in words (significance groupings)” value is given as “not significantly different than the IL-1β treated cells”. Moreover, under setting [1], the “Avg IL-1α measurement” value was found to be 24.41. For the compound `C[C@H]1C[C@H]2[C@@H]3CCC4=CC(=O)C=C[C@]4(C)[C@@]3(F)[C@@H](O)C[C@]2(C)[C@@]1(O)C(=O)CCl` [Clobetasol, reference compound], the “Avg IL-1α measurement” value (4.5 ppm + IL-1β, positive control) worked out at 14.29.
